Molecular target: T1, bacteriophage T4 DNA polymerase (Enterobacteria phage T4, UniProt P04415)
T1 construct: made in house
T1 sequence (P04415 1-898): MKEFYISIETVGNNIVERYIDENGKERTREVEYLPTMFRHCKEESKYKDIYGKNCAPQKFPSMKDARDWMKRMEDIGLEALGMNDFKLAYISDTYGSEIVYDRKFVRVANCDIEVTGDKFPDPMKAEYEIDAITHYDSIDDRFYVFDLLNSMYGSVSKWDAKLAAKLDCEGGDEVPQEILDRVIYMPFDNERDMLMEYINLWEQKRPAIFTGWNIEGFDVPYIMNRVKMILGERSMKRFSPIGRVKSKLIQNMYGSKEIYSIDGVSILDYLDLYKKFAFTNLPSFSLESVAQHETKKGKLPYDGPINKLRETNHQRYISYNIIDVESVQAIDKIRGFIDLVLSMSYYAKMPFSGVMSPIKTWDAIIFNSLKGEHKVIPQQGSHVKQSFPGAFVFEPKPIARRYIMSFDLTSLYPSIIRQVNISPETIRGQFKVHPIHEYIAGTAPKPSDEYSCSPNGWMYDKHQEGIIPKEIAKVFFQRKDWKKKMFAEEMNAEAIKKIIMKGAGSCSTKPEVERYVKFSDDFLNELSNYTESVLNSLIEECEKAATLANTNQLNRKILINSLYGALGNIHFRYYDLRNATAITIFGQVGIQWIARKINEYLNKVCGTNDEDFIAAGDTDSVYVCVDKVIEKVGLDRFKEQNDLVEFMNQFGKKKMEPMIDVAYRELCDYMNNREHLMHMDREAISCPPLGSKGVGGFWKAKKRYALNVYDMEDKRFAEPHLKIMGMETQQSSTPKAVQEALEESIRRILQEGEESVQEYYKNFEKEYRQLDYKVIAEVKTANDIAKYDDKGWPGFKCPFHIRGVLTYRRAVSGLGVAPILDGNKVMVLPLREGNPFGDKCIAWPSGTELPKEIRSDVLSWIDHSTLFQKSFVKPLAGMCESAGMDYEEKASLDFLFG
Experiment: Counter-screen against bacteriophage T4 DNA polymerase
Format: biochemical
Conditions: for % inhibition T4 10' 2.5 / % inhibition T4 10' 5 / % inhibition T4 10' 10 / % inhibition T4 10' 20 / % inhibition T4 10' 40 / % inhibition T4 10' 80: read at 10'; for % inhibition T4 10' 2.5 / % inhibition T4 70' 2.5 / % inhibition T4 130' 2.5 / % inhibition T4 40' 2.5 / % inhibition T4 90' 2.5 / % inhibition T4 180' 2.5: concentration 2.5; for % inhibition T4 10' 5 / % inhibition T4 70' 5 / % inhibition T4 130' 5 / % inhibition T4 40' 5 / % inhibition T4 90' 5 / % inhibition T4 180' 5: concentration 5; for % inhibition T4 10' 10 / % inhibition T4 70' 10 / % inhibition T4 130' 10 / % inhibition T4 40' 10 / % inhibition T4 90' 10 / % inhibition T4 180' 10: concentration 10; for % inhibition T4 10' 20 / % inhibition T4 70' 20 / % inhibition T4 130' 20 / % inhibition T4 40' 20 / % inhibition T4 90' 20 / % inhibition T4 180' 20: concentration 20; for % inhibition T4 10' 40 / % inhibition T4 70' 40 / % inhibition T4 130' 40 / % inhibition T4 40' 40 / % inhibition T4 90' 40 / % inhibition T4 180' 40: concentration 40; for % inhibition T4 10' 80 / % inhibition T4 70' 80 / % inhibition T4 130' 80 / % inhibition T4 40' 80 / % inhibition T4 90' 80 / % inhibition T4 180' 80: concentration 80; for % inhibition T4 70' 2.5 / % inhibition T4 70' 5 / % inhibition T4 70' 10 / % inhibition T4 70' 20 / % inhibition T4 70' 40 / % inhibition T4 70' 80: read at 70'; for % inhibition T4 130' 2.5 / % inhibition T4 130' 5 / % inhibition T4 130' 10 / % inhibition T4 130' 20 / % inhibition T4 130' 40 / % inhibition T4 130' 80: read at 130'; for % inhibition T4 40' 2.5 / % inhibition T4 40' 5 / % inhibition T4 40' 10 / % inhibition T4 40' 20 / % inhibition T4 40' 40 / % inhibition T4 40' 80: read at 40'; for % inhibition T4 90' 2.5 / % inhibition T4 90' 5 / % inhibition T4 90' 10 / % inhibition T4 90' 20 / % inhibition T4 90' 40 / % inhibition T4 90' 80: read at 90'; for % inhibition T4 180' 2.5 / % inhibition T4 180' 5 / % inhibition T4 180' 10 / % inhibition T4 180' 20 / % inhibition T4 180' 40 / % inhibition T4 180' 80: read at 180'
Description: Codon-optimized, exonuclease-deficient Pf-apPOL was overexpressed in E. coli BL21 (DE3) and purified as described. The protein was dialysed against two, 1-liter changes of 20 mM Tris-HCl (pH 8.0), 400 mM NaCl, and 20% glycerol. Plasmodium bergei and Babesia bovis apPOLs (Pb-apPOL and Bb-apPOL, respectively) were codon-optimized, expressed, and purified as for Pf-apPOL[15]. Bacteriophage T4 DNA polymerase was purified as described. The DNA oligonucleotides used to make the high-throughput substrate were obtained from Integrated DNA Technologies. Deoxynucleotides were purchased from Strategene. All other materials came from Fisher Scientific.
Each compound was tested in a dose-response format to determine IC50 values. […] T4 DNA polymerase can be produced in large quantities, and is in the same family (B-family) as the replicative human DNA polymerases (α, δ, and ε)[20].

SMILES: N#Cc1c(O)nc(N2CCCCC2)nc1-c1ccc2c(c1)OCO2 [KU0083146]
- % inhibition T4 10' 2.5 (DRC-1): -1.681%
- % inhibition T4 10' 5 (DRC-1): -6.153%
- % inhibition T4 10' 10 (DRC-1): -0.208%
- % inhibition T4 10' 20 (DRC-1): -4.89%
- % inhibition T4 10' 40 (DRC-1): 2.23%
- % inhibition T4 10' 80 (DRC-1): 27.8578%
- % inhibition T4 70' 2.5 (DRC-1): -2.1541%
- % inhibition T4 70' 5 (DRC-1): -7.277%
- % inhibition T4 70' 10 (DRC-1): -0.8576%
- % inhibition T4 70' 20 (DRC-1): -6.699%
- % inhibition T4 70' 40 (DRC-1): -0.3941%
- % inhibition T4 70' 80 (DRC-1): 25.8853%
- % inhibition T4 130' 2.5 (DRC-1): -4.596%
- % inhibition T4 130' 5 (DRC-1): -9.967%
- % inhibition T4 130' 10 (DRC-1): -3.465%
- % inhibition T4 130' 20 (DRC-1): -8.629%
- % inhibition T4 130' 40 (DRC-1): -2.723%
- % inhibition T4 130' 80 (DRC-1): 26.2784%
- % inhibition T4 10' 2.5 (DRC-2): 12%
- % inhibition T4 10' 5 (DRC-2): 9%
- % inhibition T4 10' 10 (DRC-2): -0.482%
- % inhibition T4 10' 20 (DRC-2): -17%
- % inhibition T4 10' 40 (DRC-2): -12%
- % inhibition T4 10' 80 (DRC-2): -1.89%
- % inhibition T4 40' 2.5 (DRC-2): 13%
- % inhibition T4 40' 5 (DRC-2): 10%
- % inhibition T4 40' 10 (DRC-2): 2%
- % inhibition T4 40' 20 (DRC-2): -13%
- % inhibition T4 40' 40 (DRC-2): -9%
- % inhibition T4 40' 80 (DRC-2): 3.39%
- % inhibition T4 90' 2.5 (DRC-2): 13%
- % inhibition T4 90' 5 (DRC-2): 12%
- % inhibition T4 90' 10 (DRC-2): 2.84%
- % inhibition T4 90' 20 (DRC-2): -10%
- % inhibition T4 90' 40 (DRC-2): -5.54%
- % inhibition T4 90' 80 (DRC-2): 3.63%
- % inhibition T4 180' 2.5 (DRC-2): 12%
- % inhibition T4 180' 5 (DRC-2): 11%
- % inhibition T4 180' 10 (DRC-2): 4%
- % inhibition T4 180' 20 (DRC-2): -10%
- % inhibition T4 180' 40 (DRC-2): -6.49%
- % inhibition T4 180' 80 (DRC-2): 2.15%

SMILES: O=C(CCc1csc(NC(=O)Nc2ccccc2)n1)Nc1nc2ccccc2s1 [KU0177354]
- % inhibition T4 10' 2.5 (DRC-1): 0.07751%
- % inhibition T4 10' 5 (DRC-1): 7.751%
- % inhibition T4 10' 10 (DRC-1): 13.5789%
- % inhibition T4 10' 20 (DRC-1): 14.0599%
- % inhibition T4 10' 40 (DRC-1): 17.0084%
- % inhibition T4 10' 80 (DRC-1): 35.4647%
- % inhibition T4 70' 2.5 (DRC-1): 1.62%
- % inhibition T4 70' 5 (DRC-1): 6.65%
- % inhibition T4 70' 10 (DRC-1): 12.106%
- % inhibition T4 70' 20 (DRC-1): 12.7058%
- % inhibition T4 70' 40 (DRC-1): 16.9924%
- % inhibition T4 70' 80 (DRC-1): 32.2475%
- % inhibition T4 130' 2.5 (DRC-1): -0.4187%
- % inhibition T4 130' 5 (DRC-1): 3.945%
- % inhibition T4 130' 10 (DRC-1): 9.972%
- % inhibition T4 130' 20 (DRC-1): 11.4415%
- % inhibition T4 130' 40 (DRC-1): 15.4247%
- % inhibition T4 130' 80 (DRC-1): 30.1254%
- % inhibition T4 10' 2.5 (DRC-2): -8%
- % inhibition T4 10' 5 (DRC-2): 2.7%
- % inhibition T4 10' 10 (DRC-2): 9%
- % inhibition T4 10' 20 (DRC-2): 6.49%
- % inhibition T4 10' 40 (DRC-2): 5.57%
- % inhibition T4 10' 80 (DRC-2): 11%
- % inhibition T4 40' 2.5 (DRC-2): -8%
- % inhibition T4 40' 5 (DRC-2): 2%
- % inhibition T4 40' 10 (DRC-2): 9%
- % inhibition T4 40' 20 (DRC-2): 5.69%
- % inhibition T4 40' 40 (DRC-2): 5%
- % inhibition T4 40' 80 (DRC-2): 14%
- % inhibition T4 90' 2.5 (DRC-2): -7%
- % inhibition T4 90' 5 (DRC-2): 3%
- % inhibition T4 90' 10 (DRC-2): 8.56%
- % inhibition T4 90' 20 (DRC-2): 5.54%
- % inhibition T4 90' 40 (DRC-2): 5%
- % inhibition T4 90' 80 (DRC-2): 17%
- % inhibition T4 180' 2.5 (DRC-2): -11%
- % inhibition T4 180' 5 (DRC-2): -1.4%
- % inhibition T4 180' 10 (DRC-2): 3%
- % inhibition T4 180' 20 (DRC-2): 1.84%
- % inhibition T4 180' 40 (DRC-2): 2.2%
- % inhibition T4 180' 80 (DRC-2): 18%

SMILES: CCCc1ccc(Oc2coc3cc(OC)ccc3c2=O)cc1 [KU0193249]
- % inhibition T4 10' 2.5 (DRC-1): 1.7455%
- % inhibition T4 10' 5 (DRC-1): -0.5189%
- % inhibition T4 10' 10 (DRC-1): 7.431%
- % inhibition T4 10' 20 (DRC-1): -2.718%
- % inhibition T4 10' 40 (DRC-1): 4.024%
- % inhibition T4 10' 80 (DRC-1): -14.455%
- % inhibition T4 70' 2.5 (DRC-1): 0.7287%
- % inhibition T4 70' 5 (DRC-1): -0.7228%
- % inhibition T4 70' 10 (DRC-1): 6.283%
- % inhibition T4 70' 20 (DRC-1): -2.8267%
- % inhibition T4 70' 40 (DRC-1): 4.61%
- % inhibition T4 70' 80 (DRC-1): -10.3998%
- % inhibition T4 130' 2.5 (DRC-1): -0.4639%
- % inhibition T4 130' 5 (DRC-1): -1.759%
- % inhibition T4 130' 10 (DRC-1): 5.142%
- % inhibition T4 130' 20 (DRC-1): -2.066%
- % inhibition T4 130' 40 (DRC-1): 4.723%
- % inhibition T4 130' 80 (DRC-1): -9.229%
- % inhibition T4 10' 2.5 (DRC-2): 9%
- % inhibition T4 10' 5 (DRC-2): -2.34%
- % inhibition T4 10' 10 (DRC-2): 0.369%
- % inhibition T4 10' 20 (DRC-2): -9%
- % inhibition T4 10' 40 (DRC-2): -1.47%
- % inhibition T4 10' 80 (DRC-2): -4.57%
- % inhibition T4 40' 2.5 (DRC-2): 9%
- % inhibition T4 40' 5 (DRC-2): -2.34%
- % inhibition T4 40' 10 (DRC-2): 0.369%
- % inhibition T4 40' 20 (DRC-2): -9%
- % inhibition T4 40' 40 (DRC-2): -1.47%
- % inhibition T4 40' 80 (DRC-2): -4.57%
- % inhibition T4 90' 2.5 (DRC-2): 8%
- % inhibition T4 90' 5 (DRC-2): -2.2%
- % inhibition T4 90' 10 (DRC-2): -0.214%
- % inhibition T4 90' 20 (DRC-2): -7%
- % inhibition T4 90' 40 (DRC-2): 0.714%
- % inhibition T4 90' 80 (DRC-2): -1.8%
- % inhibition T4 180' 2.5 (DRC-2): 1.43%
- % inhibition T4 180' 5 (DRC-2): -7%
- % inhibition T4 180' 10 (DRC-2): -5%
- % inhibition T4 180' 20 (DRC-2): -10%
- % inhibition T4 180' 40 (DRC-2): -1.19%
- % inhibition T4 180' 80 (DRC-2): -4%

Source: PMC9090415, “Discovery of small molecule inhibitors of Plasmodium falciparum apicoplast DNA polymerase” (Journal of Enzyme Inhibition and Medicinal Chemistry, 2022)
